Laboratory results taken from US20100144873A1, “TREATMENT OF MYOCARDITIS USING FTS” (RAMOT AT TEL-AVIV UNIVERSITY LTD., priority 2007, published 2010).

What was measured:
[1] = tested on: lymphocytes from lymph nodes of rats with EAM; assay: Ex vivo proliferation assay with FTS (XTT, 96 h) on lymphocytes from EAM rats; format: cell-based, rat
Method: FTS was provided by Concordia Pharmaceuticals, Inc. (Ft. Lauderdale, Fla.). FTS was stored in chloroform, which was evaporated under a stream of nitrogen immediately before use. The powder was dissolved in DMSO. This solution was diluted with RPMI/10% FCS to yield a 10 mM drug stock solution containing 10% DMSO. A portion of this solution was applied to the cells at a dilution of 1:100. Ex Vivo Proliferation Assay with FTS Five (5) rats with EAM were sacrificed on day fourteen (14). Lymphocytes were taken from lymph nodes, prepared as described and 1×10^5 cells/well seeded in 96 microwell plates. Lymphocytes were incubated in the presence of Myosin 2.5 μg/ml or Concavalin A in the presence of 0, 3.125, 6.25, 12.5, and 25 μM FTS. Lymphocyte proliferation was evaluated using XTT reagent after 96 h of incubation. To investigate the effect of FTS on the proliferative capacity of lymphocytes from EAM rats against myosin ex vivo, lymph nodes were excised from the EAM rodent models fourteen (14) days following myosin immunizations. Thereafter, lymphocytes were incubated in the presence of (A) myosin (2.5 μg/ml) and (B) Concavalin A (4 μg/ml) with varying concentrations of FTS. […] The proliferation rate was reduced in the presence of 50 μM FTS ex vivo by 48% (FIG. 1B). Thus, proliferation of lymphocytes against potential cardiac epitopes may be attenuated following FTS administration.

[2] = tested on: lymphocytes from lymph nodes of FTS-treated Lewis rats; assay: Lymphocyte proliferation assay (XTT) on lymphocytes from FTS-treated myosin-immunized rats; format: in vivo, Lewis rat
Method: (§1) Porcine cardiac myosin (Sigma) was dissolved in PBS to a concentration of 0.4 μg/ul. Each rat was immunized by a single subcutaneous injection in both footpads on day 0 with an emulsion containing 1 mg of cardiac myosin with an equal volume of complete Freund's adjuvant containing 10.0 mg/mL of heat-killed Mycobacterium tuberculosis.
(§2) FTS was provided by Concordia Pharmaceuticals, Inc. (Ft. Lauderdale, Fla.). FTS was stored in chloroform, which was evaporated under a stream of nitrogen immediately before use. The powder was dissolved in absolute ethanol and diluted to the desired concentration in sterile PBS made basic with NaOH. Carrier solution (1000 μl) containing 1.35 mg of FTS (5 mg/kg) was injected intraperitoneally (i.p.) into each rat. Control solution was prepared at the same time, starting with PBS and absolute ethanol.
(§3) Two groups of rats were induced to develop EAM by immunization with cardiac myosin according to two protocols. In Protocol 1 (prevention regimen), FTS or PBS (control) was administered two (2) days prior to myosin immunization at a dose of 5 mg/kg (FTS pre-treatment before immunization). Thereafter, dosing was continued for a period of fourteen (14) days with administration of FTS or PBS occurring every other day. […]
Lymphocyte proliferation was evaluated using XTT reagent, according to standard procedures, after 96 h of incubation. […]

[3] = tested on: IgG anti-myosin antibodies; assay: IgG anti-myosin antibody levels in sera by ELISA; format: in vivo, Lewis rat; settings: FTS 5 mg/kg i.p., p<0.05 vs control
Method: as §1, §2, §3

[4] = tested on: experimental autoimmune myocarditis (EAM); assay: Histopathology, H&E: severity of myocarditis (Dallas criteria) in EAM; format: in vivo, Lewis rat; settings: FTS 5 mg/kg i.p., mean±SE, control group 1.61±0.23, p<0.05
Method: as §1, §2
Two groups of rats were induced to develop EAM by immunization with cardiac myosin according to two protocols. […]
Hearts were removed and fixed in 10% formalin, then embedded in paraffin. […] Every fifth section was examined for the presence of myocarditis by light microscopy, and was evaluated according to previously published criteria (the Dallas criteria) describing the severity of myocarditis as follows: severe (2)>50% of the heart involved; moderate (1)=10-50% involved; and minimal (0)=<10% involved, or normal. […]

[5] = tested on: experimental autoimmune myocarditis (EAM); assay: Histopathology, Masson trichrome: scar area (collagen deposition) in EAM; format: in vivo, Lewis rat; settings: FTS 5 mg/kg i.p., vs control rats
Method: as §1, §2
Two groups of rats were induced to develop EAM by immunization with cardiac myosin according to two protocols. In Protocol 1 (prevention regimen), FTS or PBS (control) was administered two (2) days prior to myosin immunization at a dose of 5 mg/kg (FTS pre-treatment before immunization). […]
In order to evaluate the severity of scaring of the heart tissue, Masson trichrome staining was performed to assess collagen deposition in the three study groups. […] FIGS. 4B and C illustrate typical representations of the stained sections and quantitative analysis of the results.

[6] = tested on: Ras and its downstream signaling effectors in lymphocytes; assay: Western immunoblotting of total Ras, Erk, P-Erk, Akt, P-Akt in lymphocytes of treated rats; format: in vivo, Lewis rat
Method: (§4) Two groups of rats were induced to develop EAM by immunization with cardiac myosin according to two protocols. In Protocol 1 (prevention regimen), FTS or PBS (control) was administered two (2) days prior to myosin immunization at a dose of 5 mg/kg (FTS pre-treatment before immunization). Thereafter, dosing was continued for a period of fourteen (14) days with administration of FTS or PBS occurring every other day. In Protocol 2 (treatment regimen), FTS or PBS (control) was administered fourteen (14) days after porcine cardiac myosin immunization at a dose of 5 mg/kg (FTS post-EAM). Thereafter, dosing was continued for a period of seven (7) days with administration of FTS or PBS occurring every other day. Under both protocols, the Lewis rats were sacrificed at day 21 and hearts, lymph nodes and spleens were excised for histological and immunological analyses.
Lymphocytes were obtained from lymph nodes of FTS- and PBS-treated rats. The lymphocytes were homogenized in cold homogenization buffer containing protease inhibitors. Protein concentration was determined by the Bradford assay and samples containing 100 μg protein were used for determination of total Ras, total Erk, P-Erk, total Akt and P-Akt by Western immunoblotting using, respectively: pan-anti-Ras Ab (Ab03; Santa Cruz, Calif.), anti Erk Ab (Santa Cruz, Calif.), anti P-Erk Ab (Sigma), anti Akt Ab (Cell Signaling), and anti P-Akt Ab (Cell Signaling).
Enhanced chemiluminescence (ECL) and densitometric analysis were performed as detailed in R. Haklai, M. G. Weisz, G. Elad, et al., Biochemistry 37:1306-1314 (1998).

active GTP-bound Ras = assay: Ras-GTP determination by glutathione S-transferase-RBD pull-down assay in lymphocytes of treated rats; format: in vivo, Lewis rat
Method: as §4
The lymphocytes were prepared as mentioned above. Samples containing 1.5 mg protein used for determination of levels of active GTP-bound Ras by the glutathione S-transferase-RBD pull-down assay followed by Western immunoblotting with pan-anti-Ras Ab as detailed in G. Elad-Sfadia, R. Haklai, E. Ballan et al., J. Biol. Chem. 277:37169-75 (2002).

[7] = tested on: myocardial dysfunction following myosin-induced EAM; assay: M-mode echocardiography after six weeks of FTS in EAM; format: in vivo, Lewis rat; settings: FTS 5 mg/kg from 2 days before myosin immunization, every other day for six weeks; vs PBS-treated
Method: as §1, §2
Another group of experiments was designed to study the effects of FTS on prevention of myocardial dysfunction following myosin-induced EAM. Under this regimen, FTS or PBS was given two (2) days before myosin immunization, then every other day for six (6) weeks (when compromised heart function is expected). After six (6) weeks, M-mode echocardiography was performed as described in George J, Biner S, Keren P, Barshack I, Goldberg I, Sherez J, Levitski A, Keren G, Roth A. Exp Mol. Pathol. 74(3):314-8 2003. […]

[8] = human Phase I, doses up to 1800 mg/day; cited from earlier work
[9] = Protocol 1 FTS-treated rats vs control
[10] = Protocol 1 FTS-treated rats vs control animals

For `CC(C)=CCC/C(C)=C/CC/C(C)=C/CSc1ccccc1C(=O)O` [FTS, S-farnesylthiosalicylic acid], the “reduction of proliferation rate of Concavalin A-treated lymphocytes” value ([1]; Concavalin A 4 μg/ml, 50 μM FTS ex vivo) was 48%, the “proliferation of Concavalin A-treated lymphocytes vs controls” value ([1]; Concavalin A 4 μg/ml, varying concentrations of FTS ex vivo) was “dose-dependent reduction in proliferation” and the “reduction of lymphocyte proliferation to myosin” value ([1]; myosin 2.5 μg/ml, FTS 25 and 50 μM, ex vivo, vs controls, p<0.05) was 79±7%. For the same compound, the “proliferation in response to non-specific mitogen Concavalin A” value ([2]; FTS-treated rats vs control animals (data not shown)) was “not diminished”, the “decrease in lymphocyte proliferation in comparison with PBS” value ([2]; Protocol 1 (prevention): FTS 5 mg/kg i.p. from 2 days before myosin immunization, every other day for 14 days, p<0.05) was roughly 35% and the “IgG anti-myosin antibody levels” value ([3]; Protocol 1 (prevention)) was “significantly reduced levels of IgG anti-myosin antibody”. The “IgG anti-myosin antibody levels” value ([3]; Protocol 2 (treatment)) was “significantly reduced IgG anti-myosin antibody levels”, the “severity of myocarditis (myocarditis score)” value ([4]; Protocol 1 (prevention)) was 0.28±0.15 scale of 0-2 arbitrary units and the “severity of myocarditis (myocarditis score)” value ([4]; Protocol 2 (treatment)) was 0.33±0.24 scale of 0-2 arbitrary units. For the same compound, the “collagen deposition (scar formation)” value ([5]; Protocol 1 (prevention)) was “reduced collagen deposition”, the “collagen deposition (scar formation)” value ([5]; Protocol 2 (treatment)) was “reduced collagen deposition” and the “phospho-Akt level in lymphocytes” value [6, 9] was “significant decrease”. For the same compound, the “phospho-Erk level in lymphocytes” value [6, 9] was “significant decrease”, the “total Akt level in lymphocytes” value [6, 9] was “not affected” and the “total Erk level in lymphocytes” value [6, 9] was “not affected”. The “total Ras level in lymphocytes” value [6, 10] was “downregulated”, the “Ras-GTP level in lymphocytes” value (active GTP-bound Ras; [10]) was “downregulated” and the “ratio of Ras-GTP to total Ras” value (active GTP-bound Ras; lymphocytes of Protocol 1 FTS-treated rats) was “did not significantly alter”. The “fractional shortening (systolic parameter)” value [7] was “improved”, the “left ventricular diastolic diameter” value [7] was “improved” and the dose-limiting toxicities [8] was “no dose-limiting toxicities”.
